From US11045448B2, “Piperidines as covalent menin inhibitors” (THE REGENTS OF THE UNIVERSITY OF MICHIGAN, priority 2017, dated 2021) come the findings set out here.

The subject of test [1] is MonoMac6. Put plainly: 7-day proliferation assay (WST-8), MonoMac6. The format is cell-based. As to conditions: Homo sapiens, MONO-MAC-6, 168 h; Table 6; MonoMac6 (MLL-AF9); 7 days; read-out: IC50 in cell growth inhibition. Here is the method:
(§1) The effect of representative Compounds of the Disclosure on cell viability was determined in a 7-day proliferation assay. Cells were maintained in the appropriate culture medium with 10% FBS at 37° C. and an atmosphere of 5% CO2.
(§2) Cells were seeded in 96-well flat bottom (Corning COSTAR, Corning, N.Y., cat #3595) at a density of 2,000-3,000 cells/well in 100 μl of culture medium. Compounds were serially diluted in the appropriate medium, and 100 μl of the diluted compounds were added to the appropriate wells of the cell plate. After the addition of compounds, the cells were incubated at 37° C. in an atmosphere of 5% CO2 for 7 days. Cell viability was determined using the WST (2-(2-methoxy-4-nitrophenyl)-3-(4-nitrophenyl)-5-(2,4-disulfophenyl)-2H-tetrazolium, monosodium salt) Cell Counting-8 Kit (Dojindo Molecular Technologies, Inc., Rockville, Md.) according to the manufacturers' instructions.
(§3) WST-8 reagent was added to each well at a final concentration of 10% (v/v), and then the plates were incubated at 37° C. for 1-2 hours for color development. The absorbance was measured at 450 nm using a SPECTRAmax PLUS plate reader (Molecular Devices, Sunnyvale, Calif.). The readings were normalized to the DMSO-treated cells and the half maximal inhibitory concentration (IC50) was calculated by nonlinear regression (four parameters sigmoid fitted with variable slope, least squares fit, and no constraint) analysis using the GraphPad Prism 5 software (GraphPad Software, La Jolla, Calif.).

The test system of test [2] is MOLM-4 (MLL-AF9). The experiment in a line: 7-day proliferation assay (WST-8), MOLM-4. The format is cell-based. The note with it: 168 h, Table 6, 7 days, read-out: IC50 in cell growth inhibition. Here is the method:
as §1, §2
(§4) WST-8 reagent was added to each well at a final concentration of 10% (v/v), and then the plates were incubated at 37° C. for 1-2 hours for color development. The absorbance was measured at 450 nm using a SPECTRAmax PLUS plate reader (Molecular Devices, Sunnyvale, Calif.). […]
In general terms: Tetrazolium assays rely on reduction of a dye to a coloured formazan, in cell work by metabolically active cells.

The target in test [3] is menin protein (Homo sapiens (Human), UniProt O00255). Put plainly: Fluorescence polarization (FP) competitive binding assay, menin binding affinity. The note with it: menin protein 4 nM, probe 2 nM, room temperature 30 minutes. Put shortly: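 FAM-MM2, a FAM-labelled MLL1-peptide probe (2 nM), was preincubated with menin (4 nM) in PBS with 0.02% bovine γ-globulin, 4% DMSO and 0.01% Triton X-100. Compounds were added for 30 min at room temperature with shaking. FP (mP) was read at ex 485/em 530, and IC50 came from nonlinear regression of the competition curves.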
menin protein, sequence (O00255 whole entry): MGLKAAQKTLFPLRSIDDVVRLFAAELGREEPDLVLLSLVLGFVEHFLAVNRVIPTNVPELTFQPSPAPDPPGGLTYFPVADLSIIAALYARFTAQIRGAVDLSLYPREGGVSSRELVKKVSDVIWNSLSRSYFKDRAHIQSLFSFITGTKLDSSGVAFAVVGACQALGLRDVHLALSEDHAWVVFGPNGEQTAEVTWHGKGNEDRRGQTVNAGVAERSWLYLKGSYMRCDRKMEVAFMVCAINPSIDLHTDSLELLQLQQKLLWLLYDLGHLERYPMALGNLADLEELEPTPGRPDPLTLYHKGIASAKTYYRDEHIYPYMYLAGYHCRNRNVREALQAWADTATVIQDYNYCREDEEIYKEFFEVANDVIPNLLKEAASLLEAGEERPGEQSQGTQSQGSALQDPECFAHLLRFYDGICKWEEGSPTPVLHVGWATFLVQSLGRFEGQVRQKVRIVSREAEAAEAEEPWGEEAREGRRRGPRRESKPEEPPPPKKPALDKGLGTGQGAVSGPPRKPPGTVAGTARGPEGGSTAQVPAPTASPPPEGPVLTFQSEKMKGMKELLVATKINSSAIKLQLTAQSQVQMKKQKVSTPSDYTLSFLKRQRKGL
On the technique in general: Fluorescence polarisation rises when a labelled molecule tumbles more slowly, as on binding a larger partner.

The test system of test [4] is SKM-1 (no MLL fusion). Put plainly: 7-day proliferation assay (WST-8), SKM-1. The format is cell-based. The note with it: Homo sapiens, 168 h, Table 6, 7 days, read-out: IC50 in cell growth inhibition. Here is the method: as §1, §2, §4
Test [5] relates to MEIS1 and HOXA gene expression in MOLM13 cell lines. The experiment in a line: MEIS1 and HOXA gene expression by RT-PCR in MOLM13. The format is cell-based. Here is the method:
FIG. 6 is a bar graph showing that Cpd. No. 57 suppresses MEIS1 and HOXA gene expression in MOLM13 cell lines. Cells were treated with different concentrations of Cpd. No. 57 for 24 h. mRNA levels of MEIS1, HOXA9 and HOXA11 were determined by RT-PCR. *(p<0.05), **(p<0.01).
(§5) No. 57 suppresses MEIS1 and HOXA gene expression in MV4;11 and MOLM13 cell lines.

Test [6] relates to MV4-11. Put plainly: 7-day proliferation assay (WST-8), MV4-11. The test is classed as cell-based. The note with it: Homo sapiens, 168 h; Table 5; MV4-11; 7 days; read-out: IC50 in cell growth inhibition. Here is the method:
as §1, §2, §3

In test [7] the test system is HL-60 (no MLL fusion). The experiment in a line: 7-day proliferation assay (WST-8), HL-60. The note with it: Homo sapiens, 168 h, Table 6, 7 days, read-out: IC50 in cell growth inhibition. The format is cell-based. Here is the method: as §1, §2, §4
For test [8], the system named is MOLM-16 (no MLL fusion). Put plainly: 7-day proliferation assay (WST-8), MOLM-16. The test is classed as cell-based. The note with it: MOLM16, 168 h, Table 6, 7 days, read-out: IC50 in cell growth inhibition. Here is the method: as §1, §2, §4
Test [9] concerns MOLM13. Put plainly: 7-day proliferation assay (WST-8), MOLM13. The test is classed as cell-based. The note with it: Homo sapiens, MOLM-13, 168 h; Table 5; MOLM13; 7 days; read-out: IC50 in cell growth inhibition. Here is the method:
as §1, §2, §3

The test system of test [10] is SEM cells. The experiment in a line: 7-day proliferation assay (WST-8), SEM. The format is cell-based. As to conditions: 168 h; Table 6; SEM (MLL-AF4); 7 days; read-out: IC50 in cell growth inhibition. As for the experimental part:
as §1, §2, §3

For test [11], the system named is K562 (no MLL fusion). The experiment in a line: 7-day proliferation assay (WST-8), K562. The test is classed as cell-based. As to conditions: Homo sapiens, 168 h, Table 6, 7 days, read-out: IC50 in cell growth inhibition. As for the experimental part:
as §1, §2, §4

For test [12], the system named is RS4-11. Put plainly: 7-day proliferation assay (WST-8), RS4-11. The format is cell-based. The note with it: Homo sapiens, RS4-11, 168 h; Table 6; 7 days; read-out: IC50 in cell growth inhibition. Here is the method: as §1, §2, §3
For test [13], the system named is MEIS1 and HOXA gene expression in MV4;11 cell lines. The experiment in a line: MEIS1 and HOXA gene expression by RT-PCR in MV4;11. The format is cell-based. As to conditions: for MEIS1 and HOXA gene expression (mRNA levels of MEIS1, HOXA9 and HOXA11): different concentrations. As for the experimental part:
FIG. 4 is a bar graph showing that Cpd. No. 57 suppresses MEIS1 and HOXA gene expression in MV4;11 cell lines. Cells were treated with different concentrations of Cpd. No. 57 for 24 h. mRNA levels of MEIS1, HOXA9 and HOXA11 were determined by RT-PCR. *(p<0.05), **(p<0.01).
FIG. 5 is a bar graph showing that Cpd. No. 57 suppresses MEIS1 and HOXA gene expression in MV4;11 cell lines. Cells were treated with different concentrations of Cpd. No. 57 for 6 h. mRNA levels of MEIS1, HOXA9 and HOXA11 were determined by RT-PCR. *(p<0.05), **(p<0.01).
as §5

What is called IC50 is the midpoint of a concentration-inhibition curve. As for `COC(=O)N[C@H]1CCC[C@@H]1[C@](C#N)(c1cccc(F)c1)C1CCN(CC2CN(c3ccc(S(=O)(=O)C4CN(C(=O)/C=C/CN(C)C)C4)cc3)C2)CC1` [Cpd. No. 57, methyl ((1S,2R)-2-((S)-cyano(1-((1-(4-((1-((E)-4-(dimethylamino)but-2-enoyl)azetidin-3-yl)sulfonyl)phenyl)azetidin-3-yl)methyl)piperidin-4-yl)(3-fluorophenyl)methyl)cyclopentyl)carbamate], the IC50 in [1] worked out at 10.3 nM; in test [2], 31.3 nM; in [3], 3 nM; in [4] it was 900 nM; in test [6] it was 2.3 nM; in [7], 1600 nM. For the same compound, the IC50 in test [8] is 6500 nM; in [9] it was 15.4 nM; in test [10], 18 nM; in test [11], 4500 nM; in test [12], 9.4 nM. Also, the “MEIS1 and HOXA gene expression (mRNA levels of MEIS1, HOXA9 and HOXA11)” value is listed as “suppresses” in [5] (MOLM13, 24 h, different concentrations, RT-PCR (FIG. 6)); “suppresses” in [13] (MV4;11, 6 h, RT-PCR (FIG. 5)); “suppresses” in test [13] (MV4;11, 24 h, RT-PCR (FIG. 4)). In addition, the “MEIS1 and HOXA gene expression” value in test [5] (MOLM13, summary sentence for FIG. 6) was “suppresses”; in test [13] (MV4;11, summary sentence for FIG. 4, FIG. 5) it was “suppresses”.
